Consider one molecule from patent publication US9982249B2, “Xylose isomerases and their uses” (BP Corporation North America Inc., priority 2012, dated 2018).

Common to all, as to assay: Km and Vmax determination at pH 6 (XI activity assay coupled to sorbitol dehydrogenase, Hanes plot)
Common to all, as to type: biochemical
What all share (settings): xylose about 40-600 mM, about 35° C., lysate of S. cerevisiae CEN.PK2-1Ca expressing XI from p426PGK1

Assay [1] relates to Firmicutes xylose isomerase, clone 1753MI4_001, SEQ ID NO: 38. As to the method: (§1) XI activity in cell lysates was determined using a method based on that of Kersters-Hilderson et al., 1986, Enzyme Microb. Technol. 9:145-148, in which enzymatic conversion of xylose to xylulose by the XI is coupled with the enzymatic conversion of the product (xylulose) to xylitol via the enzyme sorbitol dehydrogenase (SDH). SDH activity requires the oxidation of NADH to NAD^+. The rate of oxidation of NADH is directly proportional to the rate of SDH conversion of D-xylulose to D-xylitol and is measured by the decrease in absorbance at 340 nm One unit of enzyme activity as measured by this assay is a decrease of […] of NADH per minute under assay conditions. All reactions, solutions, plates, and spectrophotometer were equilibrated to about 35° C. prior to use. Assays were performed either on fresh lysates immediately after preparation or lysates that had been frozen at −20° C. immediately after preparation. Assays were performed using a BioTek Model: Synergy H1 Hybrid Reader spectrophotometer and 96-well plates (Corning, Model #Costar® #3598). All spectrophotometric readings were performed at 340 nm. […]
(§2) The reaction buffer used for experiments at pH 7.5 was about 100 mM Tris-HCl (pH 7.5). […] For experiments where activity was also measured at pH 6, the buffer was changed to about 100 mM sodium phosphate, pH 6. […]
(§3) Any sample dilutions were performed using the reaction buffer as diluent. […] Reactions were mixed and read immediately using kinetic assay mode for about 10 minutes. Volumetric activity (VA) units are in milli-absorbance (mA) units per minute per ml of lysate added to the reactions (mA/min/ml). […] If protein quantitation was performed, specific activities (SA) were calculated where the units for SA are (mole NADH^+/min/mg, or U/mg lysate protein). […]
(§4) The Km and Vmax at pH 6 were determined for a subset of the XI clones, expressed on p426PGK1 vector in Saccharomyces cerevisiae CEN.PK2-1Ca (ATCC: MYA1108), using the XI activity assay described in the Materials and Methods and varying the concentrations of xylose from about 40-600 mM. […]

Assay [2] has as its system Prevotella xylose isomerase, clone 1754MI1_001, SEQ ID NO: 78. As to the method: as §1, §2, §3, §4
For assay [3], the system named is Prevotella xylose isomerase, clone 5586MI108_002, SEQ ID NO: 96. As to the method: as §1, §2, §3, §4

Usually Km stands for the substrate concentration at which the rate is half of its maximum. As to `OC1OC[C@@H](O)[C@H](O)[C@H]1O` (stereo partly drawn) [xylose, D-xylose], the figures for the Km in assay [1], in assay [2] and in assay [3] were 28.8 mM, 35.2 mM and 33.7 mM, respectively.
